*1 amine or outer side, *2 acyl side, *3 side chain or, on linkers, in order; H or OH if unused. Where a SMILES comes first, the peptide text is derived from it. Side-chain parts run from the residue outwards. [ ]: non-standard residue; d: D form. The star is where a group is joined. Isobutyryl(2-(3-CN-5-F-Ph)) = CC(C)(C(=O)*)c1cc(F)cc(C#N)c1; C20 diacid = O=C(O)CCCCCCCCCCCCCCCCCCC(=O)*; αMePhe(2-F) = C[C@](N)(Cc1ccccc1F)C(=O)O; β2hAla(2S) = C[C@@H](CN[*:1])C(=O)[*:2]; γGlu = O=C(O)[C@H](CCC(=O)[*:2])N[*:1]; β2hAla(R) = C[C@H](CN[*:1])C(=O)[*:2]; X71 = COc1cc(F)cc(C(C)(C)C(=O)*)c1; X7 = CC(C)(C(=O)*)c1cccc(C#N)c1; αMeL = CC(C)C[C@](C)(N)C(=O)O; Orn = NCCC[C@H](N)C(=O)O; AEEA = NCCOCCOCC(=O)O; Aib = CC(C)(N)C(=O)O; βAla = NCCC(=O)O Some results are limits rather than exact numbers.

Assay type in all cases: cell-based
For test [1], the target named is T1, GLP-1 receptor (Homo sapiens, UniProt P43220). Nature of the test: PathHunter β-arrestin assay, GLP-1 receptor. The arrangement: host or cells: PathHunter CHO-K1 GLP1R β-Arrestin Cell Line.
In test [2] the target is T2, GIP receptor (Homo sapiens, UniProt P48546).
T2 sequence (P48546 22-466): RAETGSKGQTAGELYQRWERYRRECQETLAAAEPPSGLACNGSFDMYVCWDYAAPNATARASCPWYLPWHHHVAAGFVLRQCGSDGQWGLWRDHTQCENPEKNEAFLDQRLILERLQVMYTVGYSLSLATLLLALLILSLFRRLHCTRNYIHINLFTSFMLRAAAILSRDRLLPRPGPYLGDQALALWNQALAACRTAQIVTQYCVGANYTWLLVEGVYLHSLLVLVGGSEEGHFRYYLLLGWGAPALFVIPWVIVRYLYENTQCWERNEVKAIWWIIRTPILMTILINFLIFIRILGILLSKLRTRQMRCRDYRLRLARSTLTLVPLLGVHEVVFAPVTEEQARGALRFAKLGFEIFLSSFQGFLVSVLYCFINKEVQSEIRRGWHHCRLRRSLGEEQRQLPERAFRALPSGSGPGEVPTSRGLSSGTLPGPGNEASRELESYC
Nature of the test: PathHunter β-arrestin assay, GIP receptor. The arrangement: host or cells: PathHunter CHO-K1 GIPR β-Arrestin Cell Line.

For test [3], the target named is T1, GLP-1 receptor. Put plainly: HitHunter cAMP assay, GLP-1 receptor. The following applies: for Emax: CHO cells, cAMP, normalized to maximum signal from GLP-1 (high) and DMSO (low), read-out: Emax GLP-1R.
Test [4] addresses T2, GIP receptor. Nature of the test: HitHunter cAMP assay, GIP receptor. To be noted: for Emax: CHO cells, cAMP, normalized to maximum signal from GIP (high) and DMSO (low), read-out: Emax GIP-1R. For orientation: Cyclic AMP is a second messenger, typically raised through Gs and lowered through Gi signalling.
Method: CAMP accumulation was measured in Chinese hamster ovary (CHO) cells stably expressing the human GLP-1 receptor or GIP receptor using the HitHunter CAMP Assay for Small Molecules Kit (Eurofins). Briefly, cells were grown in Ham's F12 Nutrient Mix with 10% FBS and lifted with Cell dissociation buffer, Enzyme free, PBS based (ThermoFisher). Cells were pelleted and resuspended in Hank's buffered saline solution with 10 mM Hepes and 625 μM 3-isobutyl-1-methylxanthine. The antibody reagent was then added to cells at a 1:2 ratio and 5 μL of mixture was seeded in 384-well small volume white assay plates, at 10,000 cells/well. Cells were then treated with 50 nl compound in DMSO using an ECHO 550 acoustic dispenser (Labcyte) in a 20-point dose response format in triplicate for 30 min. Cells were the lysed and detection reagents added according to the manufacturer's protocol. After overnight incubation, luminescence was measured using a Perkin Elmer Envision plate reader. Raw data was normalized to the maximum signal from GLP-1 or GIP (high) and DMSO (low). Dose response curves were analyzed using GraphPad Prism 9.0.
Setting [5] is: β-arrestin-2 recruitment, PathHunter CHO-K1 GLP1R β-Arrestin Cell Line, 90 min at 37° C., normalized to GLP-1, read-out: GLP-1R β Arrestin EC50.
The mark [6] stands for this setting: β-arrestin-2 recruitment, PathHunter CHO-K1 GIPR β-Arrestin Cell Line, 90 min at 37° C., normalized to GIP, read-out: GIPR β Arrestin EC50.
Setting [7] is: CHO cells stably expressing human GLP-1 receptor, cAMP accumulation, 30 min, read-out: EC50 GLP-1R.
[8] abbreviates: CHO cells stably expressing GIP receptor, cAMP accumulation, 30 min, read-out: EC50 GIP-1R.

T1 sequence (P43220 24-463): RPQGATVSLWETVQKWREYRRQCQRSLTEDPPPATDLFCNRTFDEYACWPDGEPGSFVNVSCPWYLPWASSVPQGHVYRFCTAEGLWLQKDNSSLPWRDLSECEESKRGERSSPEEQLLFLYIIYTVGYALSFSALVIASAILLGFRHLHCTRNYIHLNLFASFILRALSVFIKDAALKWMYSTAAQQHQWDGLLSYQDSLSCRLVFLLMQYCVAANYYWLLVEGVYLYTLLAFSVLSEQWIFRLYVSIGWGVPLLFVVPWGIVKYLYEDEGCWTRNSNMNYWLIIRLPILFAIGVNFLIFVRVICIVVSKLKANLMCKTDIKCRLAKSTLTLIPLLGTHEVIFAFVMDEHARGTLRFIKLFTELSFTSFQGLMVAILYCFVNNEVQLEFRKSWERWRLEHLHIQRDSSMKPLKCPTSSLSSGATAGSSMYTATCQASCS

A word on the EC50: it is the concentration giving half of the maximal effect. One may read the Emax as the greatest response seen or fitted, relative to the assay's reference. As to `CC[C@H](C)[C@H](NC(=O)[C@H](CC(C)C)NC(=O)[C@H](Cc1c[nH]c2ccccc12)NC(=O)[C@H](CCC(N)=O)NC(=O)[C@@H](NC(=O)[C@H](Cc1ccccc1)NC(=O)[C@H](C)NC(=O)[C@H](CCCCNC(=O)COCCOCCNC(=O)COCCOCCNC(=O)CC[C@H](NC(=O)CCCCCCCCCCCCCCCCCCC(=O)O)C(=O)O)NC(=O)[C@H](CCC(N)=O)NC(=O)[C@H](C)NC(=O)[C@@H](NC(=O)[C@H](CCCCN)NC(=O)[C@H](CC(=O)O)NC(=O)[C@H](CC(C)C)NC(=O)C(C)(C)NC(=O)[C@@H](NC(=O)[C@H](CO)NC(=O)[C@H](Cc1ccc(O)cc1)NC(=O)[C@H](CC(=O)O)NC(=O)[C@H](CO)NC(=O)[C@@H](NC(=O)[C@H](Cc1ccccc1)NC(=O)[C@@H](NC(=O)CNC(=O)[C@H](CCC(=O)O)NC(=O)[C@H](C)CNC(=O)C(C)(C)c1cc(F)cc(C#N)c1)[C@@H](C)O)[C@@H](C)O)[C@@H](C)CC)[C@@H](C)CC)C(C)C)C(=O)N[C@@H](C)C(=O)NCC(=O)NCC(=O)N1CCC[C@H]1C(=O)N[C@@H](CO)C(=O)N[C@@H](CO)C(=O)NCC(=O)N[C@@H](C)C(=O)N1CCC[C@H]1C(=O)N1CCC[C@H]1C(=O)N1CCC[C@H]1C(=O)N[C@@H](CO)C(N)=O` [Compound 225] ({Isobutyryl(2-(3-CN-5-F-Ph))}-[β2hAla(R)]EGTFTSDYSI[Aib]LDKIAQK([AEEA-AEEA-γGlu-C20 diacid])AFVQWLIAGGPSSGAPPPS-NH2), the concentration for a half-maximal effect (EC50) in test [1] (setting [5]) was over 1000 nM; in test [2] (setting [6]) it was over 1000 nM; in test [3] (setting [7]), 0.1 to 1 nM; in test [4] (setting [8]), 10 to 100 nM. Also, the Emax was determined as 102% in test [3] and 98% in test [4].

As to `CC[C@H](C)[C@H](NC(=O)[C@H](CC(C)C)NC(=O)[C@H](Cc1c[nH]c2ccccc12)NC(=O)[C@H](CCC(N)=O)NC(=O)[C@@H](NC(=O)[C@H](Cc1ccccc1)NC(=O)[C@H](C)NC(=O)[C@H](CCCCNC(=O)COCCOCCNC(=O)COCCOCCNC(=O)CC[C@H](NC(=O)CCCCCCCCCCCCCCCCCCC(=O)O)C(=O)O)NC(=O)[C@H](CCC(N)=O)NC(=O)[C@H](C)NC(=O)[C@@H](NC(=O)[C@H](CCCCN)NC(=O)[C@H](CC(=O)O)NC(=O)[C@H](CC(C)C)NC(=O)C(C)(C)NC(=O)[C@@H](NC(=O)[C@H](CO)NC(=O)[C@H](Cc1ccc(O)cc1)NC(=O)[C@H](CC(=O)O)NC(=O)[C@H](CO)NC(=O)[C@@H](NC(=O)[C@H](Cc1ccccc1)NC(=O)[C@@H](NC(=O)CNC(=O)[C@H](CCC(=O)O)NC(=O)CCNC(=O)C(C)(C)c1cccc(C#N)c1)[C@@H](C)O)[C@@H](C)O)[C@@H](C)CC)[C@@H](C)CC)C(C)C)C(=O)N[C@@H](C)C(=O)NCC(=O)NCC(=O)N1CCC[C@H]1C(=O)N[C@@H](CO)C(=O)N[C@@H](CO)C(=O)NCC(=O)N[C@@H](C)C(=O)N1CCC[C@H]1C(=O)N1CCC[C@H]1C(=O)N1CCC[C@H]1C(=O)N[C@@H](CO)C(N)=O` [Compound 150] ({X7-βAla}-EGTFTSDYSI[Aib]LDKIAQK([AEEA-AEEA-γGlu-C20 diacid])AFVQWLIAGGPSSGAPPPS-NH2), the EC50 in test [1] was over 1000 nM; in test [2], under 1000 nM; in test [3], 0.1 to 1 nM; in test [4], 0.1 to 1 nM. The Emax in test [3] worked out at 103%; in test [4], 91%.

As for `CC[C@H](C)[C@H](NC(=O)[C@H](CC(C)C)NC(=O)[C@H](Cc1ccc(O)cc1)NC(=O)[C@@H](CCC(=O)O)NC(=O)[C@@H](NC(=O)[C@H](Cc1ccccc1)NC(=O)[C@H](CCC(=O)O)NC(=O)C(C)(C)NC(=O)[C@H](CCC(N)=O)NC(=O)[C@H](C)NC(=O)[C@H](CCCCNC(=O)COCCOCCNC(=O)COCCOCCNC(=O)CC[C@H](NC(=O)CCCCCCCCCCCCCCCCCCC(=O)O)C(=O)O)NC(=O)[C@H](CCCN)NC(=O)[C@H](CC(=O)O)NC(=O)[C@H](CC(C)C)NC(=O)[C@](C)(CC(C)C)NC(=O)[C@@H](NC(=O)[C@H](CO)NC(=O)[C@H](Cc1ccc(O)cc1)NC(=O)[C@H](CC(=O)O)NC(=O)[C@H](CO)NC(=O)[C@@H](NC(=O)[C@](C)(Cc1ccccc1F)NC(=O)[C@@H](NC(=O)CNC(=O)[C@H](CCC(=O)O)NC(=O)CCNC(=O)C(C)(C)c1cc(F)cc(C#N)c1)[C@@H](C)O)[C@@H](C)O)[C@@H](C)CC)[C@@H](C)CC)C(=O)N[C@@H](CCC(=O)O)C(=O)NCC(=O)NCC(=O)N1CCC[C@H]1C(=O)N[C@@H](CO)C(=O)N[C@@H](CO)C(=O)NCC(=O)N[C@@H](C)C(=O)N1CCC[C@H]1C(=O)N1CCC[C@H]1C(=O)N1CCC[C@H]1C(=O)N[C@@H](CO)C(N)=O` [Compound 140] ({Isobutyryl(2-(3-CN-5-F-Ph))-βAla}-EGT[αMePhe(2-F)]TSDYSI[αMeL]LD[Orn]K([AEEA-AEEA-γGlu-C20 diacid])AQ[Aib]EFI[dE]YLIEGGPSSGAPPPS-NH2), the half-maximal effective concentration (EC50) in test [1] (setting [5]) was over 1000 nM; in test [2] (setting [6]) it was under 1000 nM; in test [3] (setting [7]), under 0.1 nM; in test [4] (setting [8]), under 0.1 nM. Moreover, the values for the Emax in test [3] and in test [4] were 104% and 108%, respectively.

`CC[C@H](C)[C@H](NC(=O)[C@H](CC(C)C)NC(=O)[C@H](Cc1c[nH]c2ccccc12)NC(=O)[C@H](CCC(N)=O)NC(=O)[C@@H](NC(=O)[C@H](Cc1ccccc1)NC(=O)[C@H](C)NC(=O)[C@H](CCCCNC(=O)COCCOCCNC(=O)COCCOCCNC(=O)CC[C@H](NC(=O)CCCCCCCCCCCCCCCCCCC(=O)O)C(=O)O)NC(=O)[C@H](CCC(N)=O)NC(=O)[C@H](C)NC(=O)[C@@H](NC(=O)[C@H](CCCCN)NC(=O)[C@H](CC(=O)O)NC(=O)[C@H](CC(C)C)NC(=O)C(C)(C)NC(=O)[C@@H](NC(=O)[C@H](CO)NC(=O)[C@H](Cc1ccc(O)cc1)NC(=O)[C@H](CC(=O)O)NC(=O)[C@H](CO)NC(=O)[C@@H](NC(=O)[C@H](Cc1ccccc1)NC(=O)[C@@H](NC(=O)CNC(=O)[C@H](CCC(=O)O)NC(=O)[C@@H](C)CNC(=O)C(C)(C)c1cc(F)cc(C#N)c1)[C@@H](C)O)[C@@H](C)O)[C@@H](C)CC)[C@@H](C)CC)C(C)C)C(=O)N[C@@H](C)C(=O)NCC(=O)NCC(=O)N1CCC[C@H]1C(=O)N[C@@H](CO)C(=O)N[C@@H](CO)C(=O)NCC(=O)N[C@@H](C)C(=O)N1CCC[C@H]1C(=O)N1CCC[C@H]1C(=O)N1CCC[C@H]1C(=O)N[C@@H](CO)C(N)=O` [Compound 224] ({Isobutyryl(2-(3-CN-5-F-Ph))}-[β2hAla(2S)]EGTFTSDYSI[Aib]LDKIAQK([AEEA-AEEA-γGlu-C20 diacid])AFVQWLIAGGPSSGAPPPS-NH2): the EC50 in test [1] (setting [5]) is over 1000 nM; in test [2] (setting [6]), under 1000 nM; in test [3] (setting [7]) it was 0.1 to 1 nM; in test [4] (setting [8]) it was 1 to 10 nM. Moreover, the values for the Emax in test [3] and in test [4] were 102% and 103%, respectively.

`CC[C@H](C)[C@H](NC(=O)[C@H](CC(C)C)NC(=O)[C@H](Cc1c[nH]c2ccccc12)NC(=O)[C@H](CCC(N)=O)NC(=O)[C@@H](NC(=O)[C@H](Cc1ccccc1)NC(=O)[C@H](C)NC(=O)[C@H](CCCCNC(=O)COCCOCCNC(=O)COCCOCCNC(=O)CC[C@H](NC(=O)CCCCCCCCCCCCCCCCCCC(=O)O)C(=O)O)NC(=O)[C@H](CCC(N)=O)NC(=O)[C@H](C)NC(=O)[C@@H](NC(=O)[C@H](CCCCN)NC(=O)[C@H](CC(=O)O)NC(=O)[C@H](CC(C)C)NC(=O)C(C)(C)NC(=O)[C@@H](NC(=O)[C@H](CO)NC(=O)[C@H](Cc1ccc(O)cc1)NC(=O)[C@H](CC(=O)O)NC(=O)[C@H](CO)NC(=O)[C@@H](NC(=O)[C@H](Cc1ccccc1)NC(=O)[C@@H](NC(=O)CNC(=O)[C@H](CCC(=O)O)NC(=O)CCNC(=O)C(C)(C)c1cc(F)cc(OC)c1)[C@@H](C)O)[C@@H](C)O)[C@@H](C)CC)[C@@H](C)CC)C(C)C)C(=O)N[C@@H](C)C(=O)NCC(=O)NCC(=O)N1CCC[C@H]1C(=O)N[C@@H](CO)C(=O)N[C@@H](CO)C(=O)NCC(=O)N[C@@H](C)C(=O)N1CCC[C@H]1C(=O)N1CCC[C@H]1C(=O)N1CCC[C@H]1C(=O)N[C@@H](CO)C(N)=O` [Compound 118] ({X71-βAla}-EGTFTSDYSI[Aib]LDKIAQK([AEEA-AEEA-γGlu-C20 diacid])AFVQWLIAGGPSSGAPPPS-NH2): the EC50 in test [1] (setting [5]) was over 1000 nM; in test [2] (setting [6]), over 1000 nM; in test [3] (setting [7]), 1 to 10 nM; in test [4] (setting [8]) it was 10 to 100 nM. Further, the Emax in test [3] was 103%; in test [4], 105%.

These data come from patent US12281149B2, “Modulators of G-protein coupled receptors” (priority 2021, dated 2025).
